Measurements from patent publication US7129398B2, “Reversible male sterility in transgenic plants by expression of a GA-insensitive mutant protein, gai” (Monsanto Technology LLC, priority 2001, dated 2006).

System: male sterile transgenic plants (pMON42169, TA29-gai)
Assay: Fertility restoration of gai male sterile transgenic tobacco plants by chemical spray
Type: in vivo, Nicotiana tabacum
Conditions: for restoration of male fertility: aqueous 0.25% Sylgard 309; for Seed weight: mean of 5 seed sets ± SE
Procedure: Kanamycin resistant F1 seedlings were transferred to soil and grown to flowering stage. After male sterility in the first few flowers was observed, plants from each lines were divided into four groups to receive different treatments every other day. One group received 15 mg of kinetin (a synthetic cytokinin) (Sigma) per plant, while the other two groups received either 10 mg of GA3 (Sigma) or 10 mg of TDZ (Sigma) per plant. The chemicals are in an aqueous solution containing 0.25% of Sylgard 309 surfactant (Willbur-Ellis, Fresno, Calif.) and the last group received surfactant only. The applications continued for two weeks. In another experiment, F1 plants from several male sterile transgenic lines were selected based on resistance to kanamycin and grown to flowering to verify the inheritance of the male sterile phenotype. Each plant was then sprayed with a solution containing 15 mg of kinetin every other day for two weeks. The plants continued to develop male sterile flowers until 10 days after the first application of kinetin. At 10 days post-application, the flowers that developed were male fertile. Flowers from treated plants began visibly shedding pollen whereas untreated flowers remained sterile. Under greenhouse growth conditions, the transition from stage −3 to stage 12 for a tobacco floral bud occurred in approximately 10 days. It appeared that for effective fertility restoration, kinetin needed to be applied prior to stage −2, which coincided with the onset of the TA29 promoter.

[1] = F1 male sterile transgenic tobacco, 10 mg per plant every other day for two weeks

## C=C1C[C@]23C[C@@]1(O)CC[C@H]2[C@@]12C=C[C@H](O)[C@@](C)(C(=O)O1)[C@H]2[C@@H]3C(=O)O [GA3]
[1]
  restoration of anther development: did not restore the anther development
  restoration of male fertility: remained male sterile

## O=C(Nc1ccccc1)Nc1cnns1 [TDZ]
[1]
  restoration of male fertility: did not restore the fertility

## c1coc(CNc2ncnc3[nH]cnc23)c1 [kinetin]
15 mg per plant every other day for two weeks
  persistence of production of male fertile flowers post-application: 11 days
15 mg per plant every other day for two weeks, F1 male sterile transgenic tobacco lines
  time after first application until developing flowers were male fertile: 10 days
F1 male sterile transgenic tobacco, 15 mg per plant every other day for two weeks
  restoration of male fertility: shed pollen and set seeds
Event 782 (S): selfing after fertility restoration
  Seed weight: 113.0 ± 18.9 mg
Event 790 (S): selfing after fertility restoration
  Seed weight: 110.2 ± 13.5 mg
kinetin-restored flowers of male sterile transgenic tobacco
  morphology and seed set of restored flowers: morphologically normal but also had typical seed sets
Lines 788 and 790
  difference in seed weight, selfed seed of restored flowers vs crossed seed of sterile flowers and selfed seed of wild-type flowers: no significant difference
